pIC50: −log10 of the molar value. Positions of bridges follow the written chain, without caps; N, C: chain ends. Residues, ends and D or L forms follow the SMILES beside them.
How the values were obtained:
[1] = Solubility of synthesized peptide; format: physicochemical; details: chemically synthesized peptide, in inhibitor screening assay
Description: (§1) We prepared the C4m-3127 cyclic peptide using chemical synthesis and examined its properties. First, the inhibitory activity was tested using a kit (CTLA-4:B7-1[Biotinylated] Inhibitor Screening Assay, BPS Bioscience Inc.) (Figure 5A). […] In a sequence of C4m-3127, the GG linker behind C-terminal Cys had mutated into Glu and Arg.

CTLA-4 = target: T1, CTLA-4 (Homo sapiens, UniProt P16410); test: Competitive ELISA against biotinylated C4m-3127 peptide; format: binding; details: competition with 30 μM biotinylated C4m-3127 peptide on immobilized CTLA-4; data not shown
T1 sequence (P16410 36-223): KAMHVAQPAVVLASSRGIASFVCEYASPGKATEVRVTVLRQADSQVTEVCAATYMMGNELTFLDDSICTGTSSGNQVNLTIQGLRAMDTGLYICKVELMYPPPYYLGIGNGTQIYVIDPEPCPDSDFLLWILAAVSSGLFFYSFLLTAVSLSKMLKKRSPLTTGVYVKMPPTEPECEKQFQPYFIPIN
Description: Competition experiments were performed using biotinylated C4m-3127 peptide instead of biotinylated B7-1 in the CTLA-4:B7-1[Biotinylated] inhibitor screening assay. The biotinylated C4m-3127 peptide was optimized to a concentration of 30 μM in an earlier experiment. CTLA-4 immobilized on a 384-well plate was reacted with PGF00506 in 11-point two-fold serial dilution from 1000 to 0.98 μM by assay buffer. Then, the biotinylated peptides were added to wells for competitive reaction. After washing, the residual amounts of biotinylated peptides were detected using streptavidin-HRP.

[2] = target: T2, interaction between CTLA-4 and B7-1 (Homo sapiens, UniProt P16410); test: CTLA-4:B7-1[Biotinylated] Inhibitor Screening Assay (BPS Bioscience kit); format: binding
T2 construct: purchased BPS Bioscience Inc
T2 sequence (P16410 36-161 limits assumed): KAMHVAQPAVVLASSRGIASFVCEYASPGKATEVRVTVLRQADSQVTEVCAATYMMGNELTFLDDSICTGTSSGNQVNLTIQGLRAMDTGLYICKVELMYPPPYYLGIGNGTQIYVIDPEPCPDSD
Description: as §1
A cyclic peptide with a low EC50 value was synthesized by adding glycine to the N-terminus at Toray Research Center.
(B) Flow cytometry affinity analysis.

solubility [1] | pIC50 (CTLA-4) | pIC50 ([2]; inhibition of CTLA-4:B7-1 interaction, luminescence, four-parameter logistic fit, read-out: IC50) | inhibitory activity compared to PGF00432 ([2]; ratio of IC50 values) | inhibitory activity compared to C4m-3127 ([2]; ratio of IC50 values, C4m-3127 synthetic peptide IC50 = 11.5 μM) | SMILES
improved solubility | – | – | – | – | CC[C@H](C)[C@@H]1NC(=O)[C@@H]2CCCN2C(=O)[C@H](CC(C)C)NC(=O)[C@H](Cc2ccccc2)NC(=O)[C@@H]2CCCN2C(=O)[C@H](Cc2c[nH]cn2)NC(=O)[C@H](CCSC)NC(=O)[C@@H](NC(=O)CN)CSSC[C@@H](C(=O)N[C@@H](CCC(=O)O)C(=O)N[C@@H](CCCNC(=N)N)C(=O)O)NC(=O)[C@H](Cc2ccccc2)NC(=O)[C@H](Cc2c[nH]cn2)NC(=O)[C@H](Cc2c[nH]cn2)NC(=O)[C@H](CO)NC(=O)[C@H](C(C)C)NC1=O [C4m-3127 peptide] (H-GCMHPFLPIVSHHFCER-OH; disulfide 2-15; N-terminus and C-terminus assumed)
– | 4.98 | 5.17 | 43 fold | 1.7 fold | N=C(N)NCCC[C@H]1C(=O)N(CCC(c2ccccc2)c2ccccc2)C[C@@H]2N(C(=O)OCc3ccccc3)O[C@H](CC3CCCCC3)C(=O)N21 [PGF00506, Benzyl (3R,6S,9aS)-3-(cyclohexylmethyl)-8-(3,3-diphenylpropyl)-6-(3-guanidinopropyl)-4,7-dioxohexahydropyrazino [2,1-c][1,2,4]oxadiazine-1(6H)-carboxylate]

From paper PMC9784018, “Rational Strategy for Designing Peptidomimetic Small Molecules Based on Cyclic Peptides Targeting Protein–Protein Interaction between CTLA-4 and B7-1” (Pharmaceuticals, 2022)
